Experiments:
hNGAL = target: T1, hNGAL (Homo sapiens, UniProt P80188); experiment: hNGAL-induced intracellular profibrotic protein levels in human cardiac fibroblasts (Western blot); type: cell-based; parameters: % inhibition versus hNGAL on Col I protein level / % inhibition versus hNGAL on Col III protein level / % inhibition versus hNGAL on Fibronectin protein level / % inhibition versus hNGAL on Galectin 3 protein level: concentration or dose not given beside the values
T1 construct: purchased R&D Systems
T1 sequence (P80188 21-198): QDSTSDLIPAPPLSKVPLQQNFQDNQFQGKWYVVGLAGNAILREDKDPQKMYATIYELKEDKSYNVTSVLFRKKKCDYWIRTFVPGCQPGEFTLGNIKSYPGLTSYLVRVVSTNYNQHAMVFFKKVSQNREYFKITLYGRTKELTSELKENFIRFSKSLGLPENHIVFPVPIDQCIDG
Protocol: Primary human cardiac fibroblasts (HCF) were obtained from Promocell (Heidelberg, Germany) and maintained in Fibroblast Media 3 following manufacturer’s instructions (Promocell). Cells were used between passages 5 and 7. Cells were stimulated with recombinant hNGAL (500 ng/mL, R&D Systems) or with TGFβ (10 ng/mL, R&D Systems) for 24 h. To assess cell proliferation the MTT test was used following provider’s instructions (Roche). For protein analysis. Primary Mouse Kidney Fibroblasts (MKF) were isolated from Wild Type (WT) mice. Briefly, 8 weeks old mice were sacrificed by cervical dislocation and kidneys were cleaned and rinsed in cold DPBS (Dulbecco's Phosphate-Buffered Saline). The renal cortex was minced and incubated in Dulbecco’s modified eagle medium/Nutrient mixture F-12 (DMEM/F12, Sigma) containing 1 mg/mL collagenase A (Roche) during 25 min at 37 °C. The digestion was inactivated by adding culture medium (DMEM/F12 + 10% FBS) then the cell suspension was passed through a 100-μm cell strainer. After centrifugation, the pellet (containing MKF) was diluted with culture medium then plated in 75 cm^2 culture flask. After 24 h MKF were washed with DPBS before replacement of fresh culture medium. Thereafter, culture medium was changed every 48 h. Once 70–80% confluent, MKF were trypsinized and plated in 12 or 6-well plates. For experimental use, MKF were starved with culture medium containing only 3% FBS. MKF were treated with mNGAL (500 ng/mL, R&D Systems) or with TGFβ (10 ng/mL, R&D Systems) for 6 h for gene expression analysis.
Total protein aliquots of 20 μg were prepared from cardiac homogenates and HCF and electrophoresed on SDS polyacrylamide gels and transferred to Hybond-c Extra nitrocellulose membranes (Amersham Biosciences). Membranes were incubated with primary antibodies for: Collagen I (Santa Cruz; dilution 1:500), Collagen type III (Santa Cruz; dilution 1:500), fibronectin (Millipore, 1:500), Galectin-3 (Thermo, 1:1000), α-SMA (Sigma, 1:1000), CTGF (Santa Cruz, 1:200), CD68 (Abcam, 1:500), CD80 (Santa Cruz, 1:500), CD86 (Santa Cruz, 1:500). […] After densitometric analyses, optical density values were expressed as arbitrary units. Results are expressed as an n-fold increase over the values of the control group in densitometric arbitrary units.

human plasma protein = experiment: Binding to human plasma protein; type: in vitro ADME
Protocol: (§1) Several parameters have been evaluated to determine ADME-Tox profile of the compounds. Two specific toxicity assays have been performed to assess hepatoxicity and cardiotoxicity. Hepatotoxicity was evaluated in isolated hepatocytes from swiss mice and determined by the thiazolyl blue tetrazolium bromide colorimetric assay (sigma, St Louis, MO, USA). Cardiotoxicity was evaluated using the commercially available Predictor hERG fluorescence polarization kit (Thermo Fisher Scientific, Illinois, USA). Several absorption, distribution, metabolism, and excretion (ADME) assays have been carried out. The following experiments were undertaken: stability in human microsomes, binding to human plasma protein, and CYP3A4 inhibition assay (Vivid CYP3A4 assay, Thermo Fisher Scientific, Illinois, USA). Physico-chemical properties were also assessed such as aqueous solubility and chemical stability.

hERG channel = target: T2, hERG channel (Homo sapiens, UniProt Q12809); experiment: Cardiotoxicity, Predictor hERG fluorescence polarization kit; type: binding
T2 construct: purchased Thermo Fisher Scientific
T2 sequence (Q12809 whole entry): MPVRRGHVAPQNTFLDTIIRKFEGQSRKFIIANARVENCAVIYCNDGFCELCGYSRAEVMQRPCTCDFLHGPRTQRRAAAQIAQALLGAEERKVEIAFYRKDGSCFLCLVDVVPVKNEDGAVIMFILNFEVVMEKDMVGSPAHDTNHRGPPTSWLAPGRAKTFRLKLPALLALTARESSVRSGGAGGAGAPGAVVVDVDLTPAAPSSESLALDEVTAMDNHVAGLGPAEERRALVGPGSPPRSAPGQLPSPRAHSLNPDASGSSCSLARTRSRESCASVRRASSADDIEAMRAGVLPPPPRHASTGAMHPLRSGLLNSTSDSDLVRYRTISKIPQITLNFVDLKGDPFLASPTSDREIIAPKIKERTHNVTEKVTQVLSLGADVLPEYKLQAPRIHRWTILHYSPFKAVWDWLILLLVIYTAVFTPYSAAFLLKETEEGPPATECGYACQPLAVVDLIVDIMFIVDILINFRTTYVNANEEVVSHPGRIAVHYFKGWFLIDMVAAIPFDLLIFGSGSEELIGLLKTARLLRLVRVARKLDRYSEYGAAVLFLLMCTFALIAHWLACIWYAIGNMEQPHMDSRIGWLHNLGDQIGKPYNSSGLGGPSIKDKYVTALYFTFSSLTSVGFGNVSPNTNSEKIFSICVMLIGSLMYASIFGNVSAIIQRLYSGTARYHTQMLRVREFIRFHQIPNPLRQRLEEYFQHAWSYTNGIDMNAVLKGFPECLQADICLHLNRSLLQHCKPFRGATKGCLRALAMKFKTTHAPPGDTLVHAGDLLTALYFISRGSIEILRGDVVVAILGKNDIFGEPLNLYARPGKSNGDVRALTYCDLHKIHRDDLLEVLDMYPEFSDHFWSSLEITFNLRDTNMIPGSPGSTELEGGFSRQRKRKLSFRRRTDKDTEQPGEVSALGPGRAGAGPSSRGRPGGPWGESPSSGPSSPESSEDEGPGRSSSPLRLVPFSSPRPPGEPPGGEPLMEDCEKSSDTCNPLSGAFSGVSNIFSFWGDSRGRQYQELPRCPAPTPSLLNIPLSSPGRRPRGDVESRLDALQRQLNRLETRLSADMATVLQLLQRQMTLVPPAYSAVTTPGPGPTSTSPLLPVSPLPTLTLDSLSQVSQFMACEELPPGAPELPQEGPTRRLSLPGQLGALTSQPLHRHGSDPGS
Protocol: as §1

CYP3A4 = target: T3, CYP3A4 (Homo sapiens, UniProt P08684); experiment: CYP3A4 inhibition assay (Vivid CYP3A4 assay); type: in vitro ADME
T3 construct: purchased Thermo Fisher Scientific
T3 sequence (P08684 whole entry): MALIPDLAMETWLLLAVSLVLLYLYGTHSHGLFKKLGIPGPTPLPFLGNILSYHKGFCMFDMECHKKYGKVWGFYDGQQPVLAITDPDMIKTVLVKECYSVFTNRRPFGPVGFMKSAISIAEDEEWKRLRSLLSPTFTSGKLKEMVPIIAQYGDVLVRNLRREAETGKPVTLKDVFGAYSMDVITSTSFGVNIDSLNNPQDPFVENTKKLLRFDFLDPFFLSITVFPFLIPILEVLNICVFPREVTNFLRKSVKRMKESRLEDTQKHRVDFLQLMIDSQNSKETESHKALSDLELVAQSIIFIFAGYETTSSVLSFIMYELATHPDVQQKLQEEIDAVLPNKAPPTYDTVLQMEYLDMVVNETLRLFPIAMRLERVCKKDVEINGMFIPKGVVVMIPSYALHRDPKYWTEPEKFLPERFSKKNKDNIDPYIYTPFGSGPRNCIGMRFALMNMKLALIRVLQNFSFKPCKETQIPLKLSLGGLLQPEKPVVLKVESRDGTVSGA
Protocol: as §1

[1] = Table S2, human cardiac fibroblasts

CC(=O)c1cccc(S(=O)(=O)NCc2ccccc2-n2cccn2)c1 [GPZ614741]
hNGAL-induced expression of intracellular profibrotic proteins (Col I, Col III, fibronectin, Gal3), in words (hNGAL; 10 µM, human cardiac fibroblasts, Fig. 1D): blocked | Col III synthesis (protein level) (hNGAL; Table S2, hNGAL-treated human cardiac fibroblasts, Control 1.0, NGAL 1.67, mean ± SEM): 1.05 ± 0.1 | Fibronectin synthesis (protein level) (hNGAL; Table S2, hNGAL-treated human cardiac fibroblasts, Control 1.0, NGAL 1.8, mean ± SEM): 0.95 ± 0.2 | Col I synthesis (protein level) (hNGAL; Table S2, hNGAL-treated human cardiac fibroblasts, Control 1.0, NGAL 2.03, mean ± SEM): 1.09 ± 0.2 | Galectin-3 synthesis (protein level) (hNGAL; Table S2, hNGAL-treated human cardiac fibroblasts, Control 1.0, NGAL 2.1, mean ± SEM): 1.3 ± 0.1 | % inhibition versus hNGAL on Col I protein level (hNGAL; [1]): 46.4% | % inhibition versus hNGAL on Col III protein level (hNGAL; [1]): 37.1% | % inhibition versus hNGAL on Fibronectin protein level (hNGAL; [1]): 47.2% | % inhibition versus hNGAL on Galectin 3 protein level (hNGAL; [1]): 38.1% | Plasma protein binding (PPB), in words (human plasma protein): low | hPPB% (human plasma protein; Table S5, human plasma protein binding): 71.16% | Cardiotoxicity (hERG predictor assay), in words (hERG channel): nontoxic | Cardiotoxicity % (100= no toxicity) (hERG channel; Table S5, hERG predictor assay): 101.76 ± 2.48% | Processing by CYP3A4, in words (CYP3A4): partially processed by CYP3A4 | CyP 3A4 Inhibition % (100= no inhibition) (CYP3A4; Table S5): 72.21 ± 1.94%
